In brackets after ≈: the same amount, converted by molar mass.
Test system: up to 32 different microorganisms
Test: in vitro antibacterial activity (MIC), agar dilution on Brain Heart Infusion (BHI) agar with Steers replicator
Assay type: cell-based
Conditions: unit assumed
Method in brief: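 Up to 32 strains were replicator-inoculated (1:100, or 1:10 for Micrococcus and Streptococcus) onto BHI agar plates holding serial compound dilutions and kept 20-24 h at 35-37° C. Plates were read visually against drug-free growth controls, with erythromycin A run alongside; MIC was the lowest concentration giving no growth, slight haze or sparse colonies.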

[1] = Candida albicans CCH 442 (code TT)
[2] = Enterococcus faecism ATCC 8043 (code II)
[3] = Escherichia coli DC-2 (code SS)
[4] = Escherichia coli JUHL (code QQ)
[5] = Haemophilis influenzae DILL AMP R (code WW)
[6] = Micrococcus luteus ATCC 4698 (code PP)
[7] = Micrococcus luteus ATCC 9341 (code OO)
[8] = Mycobacterium smegmatis ATCC 114 (code UU)
[9] = Nocardia Asteroides ATCC9970 (code VV)
[10] = Staphylococcus aureus 1775 (code GG)
[11] = Staphylococcus aureus A5177 (code BB)
[12] = Staphylococcus aureus A-5278 (code CC)
[13] = Staphylococcus aureus ATCC 6538P (code AA)
[14] = Staphylococcus aureus CMX 553 (code FF)
[15] = Staphylococcus aureus CMX 642A (code DD)
[16] = Staphylococcus aureus NCTC10649M (code EE)
[17] = Staphylococcus epidermidis 3519 (code HH)
[18] = Streptococcus Pneumonia 5649 (code ZZA)
[19] = Streptococcus Pneumonia 5979 (code ZZ)
[20] = Streptococcus Pneumonia ATCC6303 (code XX)
[21] = Streptococcus Pneumonia GYR 1171 (code YY)
[22] = Streptococcus agalactiae CMX 508 (code KK)
[23] = Streptococcus pyogenes 930 (code MM)
[24] = Streptococcus pyogenes EES61 (code LL)
[25] = Streptococcus pyogenes PIU 2548 (code NN)

CC[C@H]1OC(=O)[C@H](C)C(=O)[C@H](C)[C@@H](O[C@@H]2O[C@H](C)C[C@H](N(C)C)[C@H]2O)[C@@](C)(OCC=NNC(=O)c2ccccc2)C[C@@H](C)C(=O)[C@H](C)[C@H]2NC(=O)O[C@@]21C [Example 241, Compound of Formula (IX): L is CO, T is NH, R is —CH2CH═NNHC(O)phenyl]
MIC (organism code AA): 3.1 µg/mL | MIC (organism code CC): > 100 µg/mL | MIC (organism code DD): 6.2 µg/mL | MIC (organism code EE): 6.2 µg/mL | MIC (organism code FF): 6.2 µg/mL | MIC (organism code GG): > 100 µg/mL | MIC (organism code HH): 6.2 µg/mL | MIC (organism code II): 1.56 µg/mL | MIC (organism code JJ): 0.39 µg/mL | MIC (organism code KK): 1.56 µg/mL | MIC (organism code LL): 0.78 µg/mL | MIC (organism code MM): > 100 µg/mL | MIC (organism code NN): 6.2 µg/mL | MIC (organism code OO): 0.78 µg/mL | MIC (organism code PP): 3.1 µg/mL | MIC (organism code QQ): > 100 µg/mL | MIC (organism code RR): 1.56 µg/mL | MIC (organism code SS): > 100 µg/mL | MIC (organism code TT): > 100 µg/mL | MIC (organism code UU): 100 µg/mL | MIC (organism code VV): 6.2 µg/mL | MIC (organism code WW): 16 µg/mL | MIC (organism code XX): 0.5 µg/mL | MIC (organism code YY): 0.25 µg/mL | MIC (organism code ZZ): > 128 µg/mL | MIC (organism code ZZA): 4 µg/mL

CCC1OC(=O)C(C)C(=O)C(C)C(OC2OC(C)CC(N(C)C)C2O)C(C)(OCC=Cc2cnc3ccc(N)cc3c2)CC(C)C(=O)C(C)C2NC(=O)OC12C (stereo not drawn) [Example 201, R is —CH2CH═CH-(6-amino-3-quinolyl)]
MIC (organism code AA): 0.1 µg/mL (≈ 0.128 µM) | MIC (organism code BB): 0.1 µg/mL (≈ 0.128 µM) | MIC (organism code CC): > 100 µg/mL | MIC (organism code DD): 0.1 µg/mL (≈ 0.128 µM) | MIC (organism code EE): 0.1 µg/mL (≈ 0.128 µM) | MIC (organism code FF): 0.1 µg/mL (≈ 0.128 µM) | MIC (organism code GG): > 100 µg/mL | MIC (organism code HH): 0.01 µg/mL (≈ 0.0128 µM) | MIC (organism code II): 0.01 µg/mL (≈ 0.0128 µM) | MIC (organism code JJ): 0.01 µg/mL (≈ 0.0128 µM) | MIC (organism code KK): 0.01 µg/mL (≈ 0.0128 µM) | MIC (organism code LL): 0.01 µg/mL (≈ 0.0128 µM) | MIC (organism code MM): 1.56 µg/mL (≈ 2 µM) | MIC (organism code NN): 0.2 µg/mL (≈ 0.256 µM) | MIC (organism code OO): 0.05 µg/mL (≈ 0.064 µM) | MIC (organism code PP): 0.1 µg/mL (≈ 0.128 µM) | MIC (organism code QQ): 50 µg/mL (≈ 64 µM) | MIC (organism code RR): 0.1 µg/mL (≈ 0.128 µM) | MIC (organism code SS): 50 µg/mL (≈ 64 µM) | MIC (organism code TT): > 100 µg/mL | MIC (organism code UU): 6.2 µg/mL (≈ 7.94 µM) | MIC (organism code VV): 0.2 µg/mL (≈ 0.256 µM) | MIC (organism code WW): 2 µg/mL (≈ 2.56 µM) | MIC (organism code XX): 0.03 µg/mL (≈ 0.0384 µM) | MIC (organism code YY): 0.03 µg/mL (≈ 0.0384 µM) | MIC (organism code ZZ): 16 µg/mL (≈ 20.5 µM) | MIC (organism code ZZA): 1 µg/mL (≈ 1.28 µM)

CCC1OC(=O)C(C)C(=O)C(C)C(OC2OC(C)CC(N(C)C)C2O)C(C)(OCC=Cc2cnc3ccc(Cl)cc3c2)CC(C)C(=O)C(C)C2NC(=O)OC12C (stereo not drawn) [Example 191, R is —CH2CH═CH-(6-chloro-3-quinolyl)]
MIC [1]: > 100 µg/mL | MIC [2]: 0.05 µg/mL (≈ 0.0625 µM) | MIC [3]: 100 µg/mL (≈ 125 µM) | MIC [4]: 50 µg/mL (≈ 62.5 µM) | MIC (Escherichia coli SS (code RR)): 0.2 µg/mL (≈ 0.25 µM) | MIC [5]: 2 µg/mL (≈ 2.5 µM) | MIC [6]: 0.1 µg/mL (≈ 0.125 µM) | MIC [7]: 0.01 µg/mL (≈ 0.0125 µM) | MIC [8]: 0.39 µg/mL (≈ 0.487 µM) | MIC [9]: 0.02 µg/mL (≈ 0.025 µM) | MIC [10]: > 100 µg/mL | MIC [11]: 0.05 µg/mL (≈ 0.0625 µM) | MIC [12]: > 100 µg/mL | MIC [13]: 0.05 µg/mL (≈ 0.0625 µM) | MIC [14]: 0.05 µg/mL (≈ 0.0625 µM) | MIC [15]: 0.05 µg/mL (≈ 0.0625 µM) | MIC [16]: 0.1 µg/mL (≈ 0.125 µM) | MIC [17]: 0.05 µg/mL (≈ 0.0625 µM) | MIC [18]: 0.25 µg/mL (≈ 0.312 µM) | MIC [19]: 2 µg/mL (≈ 2.5 µM) | MIC [20]: 0.03 µg/mL (≈ 0.0375 µM) | MIC [21]: 0.03 µg/mL (≈ 0.0375 µM) | MIC [22]: 0.05 µg/mL (≈ 0.0625 µM) | MIC [23]: 3.1 µg/mL (≈ 3.87 µM) | MIC [24]: 0.02 µg/mL (≈ 0.025 µM) | MIC [25]: 0.1 µg/mL (≈ 0.125 µM)

CC[C@H]1OC(=O)[C@H](C)C(=O)[C@H](C)[C@@H](O[C@@H]2O[C@H](C)C[C@H](N(C)C)[C@H]2O)[C@@](C)(OCC(O)C#N)C[C@@H](C)C(=O)[C@H](C)[C@@H](O)[C@]1(C)O (stereo partly drawn) [Example 175, Compound of Formula (VIII): X is O, R is CH2—CH(OH)—CN]
MIC [1]: > 100 µg/mL | MIC [2]: 0.02 µg/mL | MIC [3]: > 100 µg/mL | MIC [4]: > 100 µg/mL | MIC (Escherichia coli SS (code RR)): 0.78 µg/mL | MIC [5]: 64 µg/mL | MIC [6]: 0.1 µg/mL | MIC [7]: 0.05 µg/mL | MIC [8]: 0.78 µg/mL | MIC [9]: 0.39 µg/mL | MIC [10]: 12.5 µg/mL | MIC [11]: 0.39 µg/mL | MIC [12]: 25 µg/mL | MIC [13]: 0.2 µg/mL | MIC [14]: 0.78 µg/mL | MIC [15]: 0.78 µg/mL | MIC [16]: 0.78 µg/mL | MIC [17]: 0.78 µg/mL | MIC [18]: 2 µg/mL | MIC [19]: 8 µg/mL | MIC [20]: 0.03 µg/mL | MIC [21]: 0.03 µg/mL | MIC [22]: 0.02 µg/mL | MIC (Streptococcus bovis A-5169 (code JJ)): 0.02 µg/mL | MIC [23]: 3.1 µg/mL | MIC [24]: 0.01 µg/mL | MIC [25]: 0.39 µg/mL

CC[C@H]1OC(=O)[C@H](C)C(=O)[C@H](C)[C@@H](O[C@@H]2O[C@H](C)C[C@H](N(C)C)[C@H]2O)[C@@](C)(OCCNCc2ccc3ncccc3c2)C[C@@H](C)C(=O)[C@H](C)[C@H]2NC(=O)O[C@@]21C [Example 227, Compound of Formula (IX): L is CO, T is NH, R is —CH2CH2NHCH2(6-quinolyl)]
MIC (organism code AA): 0.2 µg/mL | MIC (organism code BB): 0.2 µg/mL | MIC (organism code CC): > 100 µg/mL | MIC (organism code DD): 0.2 µg/mL | MIC (organism code EE): 0.2 µg/mL | MIC (organism code FF): 0.2 µg/mL | MIC (organism code GG): > 100 µg/mL | MIC (organism code HH): 0.2 µg/mL | MIC (organism code II): 0.05 µg/mL | MIC (organism code JJ): ≤ 0.005 µg/mL | MIC (organism code KK): 0.05 µg/mL | MIC (organism code LL): 0.02 µg/mL | MIC (organism code MM): 50 µg/mL | MIC (organism code NN): 0.39 µg/mL | MIC (organism code OO): 0.05 µg/mL | MIC (organism code PP): 0.39 µg/mL | MIC (organism code QQ): 6.2 µg/mL | MIC (organism code RR): 0.1 µg/mL | MIC (organism code SS): 25 µg/mL | MIC (organism code TT): > 100 µg/mL | MIC (organism code UU): 1.56 µg/mL | MIC (organism code VV): 0.05 µg/mL | MIC (organism code WW): 2 µg/mL | MIC (organism code XX): 0.03 µg/mL | MIC (organism code YY): 0.03 µg/mL | MIC (organism code ZZ): > 64 µg/mL | MIC (organism code ZZA): 2 µg/mL

CCC1OC(=O)C(C)C(=O)C(C)C(OC2OC(C)CC(N(C)C)C2O)C(C)(OCCCc2cnc3ccccc3c2)CC(C)C(=O)C(C)C2NC(=O)OC12C (stereo not drawn) [Example 242, Compound of Formula (IX): L is CO, T is NH, R is —CH2CH2CH2(3-quinolyl)]
MIC (organism code AA): 0.2 µg/mL | MIC (organism code CC): > 100 µg/mL | MIC (organism code DD): 0.2 µg/mL | MIC (organism code EE): 0.2 µg/mL | MIC (organism code FF): 0.2 µg/mL | MIC (organism code GG): > 100 µg/mL | MIC (organism code HH): 0.39 µg/mL | MIC (organism code II): 0.1 µg/mL | MIC (organism code JJ): 0.02 µg/mL | MIC (organism code KK): 0.05 µg/mL | MIC (organism code LL): 0.01 µg/mL | MIC (organism code MM): > 100 µg/mL | MIC (organism code NN): 0.2 µg/mL | MIC (organism code OO): 0.05 µg/mL | MIC (organism code PP): 0.39 µg/mL | MIC (organism code QQ): > 100 µg/mL | MIC (organism code RR): 0.78 µg/mL | MIC (organism code SS): > 100 µg/mL | MIC (organism code TT): > 100 µg/mL | MIC (organism code UU): 0.78 µg/mL | MIC (organism code VV): 0.39 µg/mL | MIC (organism code WW): 8 µg/mL | MIC (organism code XX): 0.03 µg/mL | MIC (organism code YY): 0.03 µg/mL | MIC (organism code ZZ): > 128 µg/mL | MIC (organism code ZZA): 0.25 µg/mL

From patent USRE39591E1, “6-O-substituted ketolides having antibacterial activity” (Abbott Laboratories, priority 1996, dated 2007)
